Data set [1] concerns the target T1, human Histamine H2 receptor (Homo sapiens, UniProt P25021).
T1 construct: expressed in transfected cells; host or cells: COS-7 (transient)
The data set is described as follows: Cloned human H2 receptor binding assay, [3H]-thiotidine, COS-7 cells. Particulars: n.A. = no affinity (= no inhibition of histamine activity) detected, read-out: Receptor Affinity: pK Values, measured receptor H2 (converted). The protocol: (§1) COS-7 cells were transiently transfected with an expression plasmid pCineohH1, pCineohH2, pCineohH3 and pCineohH4 encoding the human Histamine H1, H2 H3 or H4 receptor, respectively. Transfected cells were harvested after 48 h, homogenized in ice-cold 50 mM Na2/potassium phosphate buffer (pH 7.4) and used for radioligand binding studies. Cell homogenates (40 - 50 µg of protein) were incubated for 30 min at 25°C in 50 mM Na2/potassium phosphate buffer (pH 7.4) in 400 µl with the various concentrations of either [^3H]-mepyramine, [^3H]-thiotidine, [^3H]-R-α-Methylhistamine, and [^3H]-pyramilamine for cells expressing recombinant human H1, H2, H3 and H4 receptors, respectively. The nonspecific binding was defined in the presence of 1 µM mianserin. In displacement studies, cell homogenated were incubated either with 1 nM [^3H]-mepyramine, 15 nM [^3H]-thiotidine, 0.5 nM [^3H]-R-α-Methylhistamine, or 15 nM [^3H]-pyramilamine and increasing concentrations of competing ligands. The incubations were stopped by rapid dilution with 3 ml of ice-cold 50 mM Na2/potassium phosphate buffer (pH 7.4). The bound radioactivity was separated by filtration through Whatman GF/C filters that had been treated with 0.3 % polyethyleneimine. Filters were washed twice in 3 ml of buffer and radioactivity retained on the filters was measured by liquid scintillation counting.

The test system of data set [2] is human histamine receptors. The data set is described as follows: Cloned human H1, H2, H3 and H4 receptor binding assay (summary statement). Particulars: statement in words. On the procedure:
as §1

The conditions of data set [3]: repeated administration; cited from earlier work.

T1 sequence (P25021 whole entry): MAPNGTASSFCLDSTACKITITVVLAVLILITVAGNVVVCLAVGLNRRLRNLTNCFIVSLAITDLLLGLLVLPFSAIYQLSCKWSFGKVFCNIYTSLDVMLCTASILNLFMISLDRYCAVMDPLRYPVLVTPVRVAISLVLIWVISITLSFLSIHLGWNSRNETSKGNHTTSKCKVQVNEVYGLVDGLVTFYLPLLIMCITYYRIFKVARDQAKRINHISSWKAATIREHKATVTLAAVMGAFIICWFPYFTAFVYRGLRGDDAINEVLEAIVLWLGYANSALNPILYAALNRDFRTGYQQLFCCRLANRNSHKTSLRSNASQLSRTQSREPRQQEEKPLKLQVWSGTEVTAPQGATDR

In the case of `CCOc1ccc2c(c1)Sc1cccc(O)c1C2=C1CCN(C)CC1` [4-(6-Ethoxy-1-hydroxy-thioxanthen-9-yliden)-1-methyl-piperidine], in data set [1], the Ki is 3240 nM.

On to `CCOc1ccc2c(c1)Sc1cccc(OC)c1C2=C1CCN(C)CC1` [4-(6-Ethoxy-1-methoxy-thioxanthen-9-yliden)-1-methyl-piperidine], for which the Ki in data set [1] was 2040 nM.

Consider `COc1cccc2c1C(=C1CCN(C)CC1)c1ccc(C(C)C)cc1S2` [4-(6-Isopropyl-1-methoxy-thioxanthen-9-yliden)-1-methyl-piperidine], for which the Ki in data set [1] is 1050 nM.

For the compound `N[C@@](CF)(Cc1cnc[nH]1)C(=O)O` [FMH, (S)-α-fluoromethylhistidine], the “affinity for the human histamine receptors” value in data set [2] is reported as “low affinity”. Besides, in data set [3], the sedative effects entry is “only very mild sedative effects” and the tissue histamine content entry is “strong reduction”.

These data come from EP1321169A1, “Combination of a serotonin receptor antagonist with a histidine decarboxylase inhibitor as a medicament” (Biofrontera Pharmaceuticals AG, priority 2001, dated 2003).
